# How the values were obtained:
# [1] = test system: Diamond Back Moth (Plutella xylostella); experiment: Test Example 1: insecticidal effect on diamond back moth, Chinese cabbage seedling with eggs immersed in liquid chemical; type: in vivo; details: eggs on Chinese cabbage seedling immersed about 30 seconds, six days after immersion, 25° C.
# Text: Insecticidal Effect on Diamond Back Moth (Plutella xylostella)
# Adult diamond back moths were released and allowed to oviposit on a Chinese cabbage seedling. Two days after the release, the seedling having the eggs deposited thereon was immersed for about 30 seconds in a liquid chemical prepared by diluting a preparation containing each compound listed in Table 1 or 2 as an active ingredient to adjust the prescribed concentration. After air-dryness, it was allowed to stand in a room thermostatted at 25° C. Six days after the immersion, the hatched insects were counted. The mortality was calculated according to the following equation and the insecticidal effect was judged according to the criterion shown below. The test was carried out with triplicate groups of 10 insects. [formula]
# [2] = test system: Common Cutworm (Spodoptera litura); experiment: Test Example 2: insecticidal effect on common cutworm, cabbage leaf immersion; type: in vivo; details: cabbage leaf immersed, second-instar larvae, eight days after inoculation, 25° C.
# Text: Insecticidal Effect on Common Cutworm (Spodoptera litura)
# A piece of cabbage leaf (cultivar; Shikidori) was immersed for about 30 seconds in a liquid chemical prepared by diluting a preparation containing each compound listed in Table 1 or 2 as an active ingredient to adjust the prescribed concentration. After air-dryness, it was placed in a plastic Petri dish with a diameter of 9 cm and inoculated with second-instar larvae of common cutworm, after which the dish was closed and then allowed to stand in a room thermostatted at 25° C. Eight days after the inoculation, the dead and alive were counted. The mortality was calculated according to the following equation and the insecticidal effect was judged according to the criterion shown in Test Example 1. The test was carried out with triplicate groups of 10 insects. [formula]
Structure (SMILES),Test Example 1 insecticidal effect (mortality grade) ([1]; 5 ppm),Test Example 1 insecticidal effect (mortality grade) ([1]; 50 ppm),Test Example 2 insecticidal effect (mortality grade) ([2]; 5 ppm),Test Example 2 insecticidal effect (mortality grade) ([2]; 50 ppm)
CC(C)(CS(C)(=O)=O)NC(=O)c1c(I)cccc1C(=O)Nc1ccc(OC(F)(F)C(F)OC(F)(F)F)cc1Cl (stereo not shown) [Compound 1-76],A (Mortality 100%),A (Mortality 100%),E (Mortality 49-0%),A (Mortality 100%)
CSCC(C)(C)NC(=O)c1c(I)cccc1C(=O)Nc1ccc(OC(F)(F)C(F)OC(F)(F)C(F)(F)C(F)(F)F)cc1Cl (stereo not shown) [Compound 1-81],A (Mortality 100%),A (Mortality 100%),A (Mortality 100%),A (Mortality 100%)
C[S+]([O-])CC(C)(C)NC(=O)c1c(I)cccc1C(=O)Nc1ccc(OC(F)(F)C(F)OC(F)(F)C(F)(F)C(F)(F)F)cc1Cl (stereo not shown) [Compound 1-82],A (Mortality 100%),A (Mortality 100%),C (Mortality 89-80%),A (Mortality 100%)
CC(C)(CS(C)(=O)=O)NC(=O)c1c(I)cccc1C(=O)Nc1ccc(OC(F)(F)C(F)OC(F)(F)C(F)(F)C(F)(F)F)cc1Cl (stereo not shown) [Compound 1-83],A (Mortality 100%),A (Mortality 100%),A (Mortality 100%),A (Mortality 100%)
CSCC(C)(C)NC(=O)c1c(I)cccc1C(=O)Nc1ccc(OC(F)(F)C(F)OC(F)(F)C(F)(F)C(F)(F)F)c(Cl)c1Cl (stereo not shown) [Compound 1-84],E (Mortality 49-0%),A (Mortality 100%),E (Mortality 49-0%),A (Mortality 100%)
C[S+]([O-])CC(C)(C)NC(=O)c1c(I)cccc1C(=O)Nc1ccc(OC(F)(F)C(F)OC(F)(F)C(F)(F)C(F)(F)F)c(Cl)c1Cl (stereo not shown) [Compound 1-85],A (Mortality 100%),A (Mortality 100%),E (Mortality 49-0%),A (Mortality 100%)
CC(C)(CS(C)(=O)=O)NC(=O)c1c(I)cccc1C(=O)Nc1ccc(OC(F)(F)C(F)OC(F)(F)C(F)(F)C(F)(F)F)c(Cl)c1Cl (stereo not shown) [Compound 1-86],A (Mortality 100%),A (Mortality 100%),D (Mortality 79-50%),A (Mortality 100%)
CSCC(C)(C)NC(=O)c1c(I)cccc1C(=O)Nc1ccc(Oc2c(Cl)cc(C(F)(F)F)c(F)c2Cl)cc1Cl [Compound 1-93],A (Mortality 100%),A (Mortality 100%),E (Mortality 49-0%),C (Mortality 89-80%)
CSCC(C)(C)NC(=O)c1c(I)cccc1C(=O)Nc1ccc(Oc2ccc(C(F)(F)F)cn2)cc1Cl [Compound 1-94],A (Mortality 100%),A (Mortality 100%),E (Mortality 49-0%),A (Mortality 100%)
CSCC(C)(C)NC(=O)c1c(I)cccc1C(=O)Nc1ccc(Oc2ncc(C(F)(F)F)cc2Cl)cc1Cl [Compound 1-95],A (Mortality 100%),A (Mortality 100%),E (Mortality 49-0%),A (Mortality 100%)
C[S+]([O-])CC(C)(C)NC(=O)c1c(I)cccc1C(=O)Nc1ccc(Oc2ncc(C(F)(F)F)cc2Cl)cc1Cl (stereo not shown) [Compound 1-96],A (Mortality 100%),A (Mortality 100%),E (Mortality 49-0%),A (Mortality 100%)
CC(C)(CS(C)(=O)=O)NC(=O)c1c(I)cccc1C(=O)Nc1ccc(Oc2ncc(C(F)(F)F)cc2Cl)cc1Cl [Compound 1-97],A (Mortality 100%),A (Mortality 100%),E (Mortality 49-0%),A (Mortality 100%)
CSCC(C)(C)NC(=O)c1c(I)cccc1C(=O)Nc1ccc(Oc2ncc(C(F)(F)F)cc2Cl)c(Cl)c1Cl [Compound 1-98],A (Mortality 100%),A (Mortality 100%),E (Mortality 49-0%),A (Mortality 100%)
CC(C)(CS(C)(=O)=O)NC(=O)c1c(I)cccc1C(=O)Nc1ccc(Oc2ncc(C(F)(F)F)cc2Cl)c(Cl)c1Cl [Compound 1-100],A (Mortality 100%),A (Mortality 100%),E (Mortality 49-0%),A (Mortality 100%)
CSCC(C)(C)NC(=O)c1c(I)cccc1C(=O)Nc1ccc(SC(F)F)cc1Cl [Compound 1-107],A (Mortality 100%),A (Mortality 100%),E (Mortality 49-0%),E (Mortality 49-0%)
CSCC(C)(C)NC(=O)c1c(I)cccc1C(=O)Nc1ccc(S(=O)(=O)C(F)(F)F)cc1Cl [Compound 1-111],A (Mortality 100%),A (Mortality 100%),E (Mortality 49-0%),A (Mortality 100%)
